Measurements from BindingDB's records for doi:10.1021/jm020940p (University of Innsbruck, 2002).

Experiments:
[1] = The ability of compound to inhibit [35S][…] binding in guinea pig caudate stimulated by SNC80 (Opioid receptor delta 1) antagonist
[2] = The ability of compound to inhibit [35S][…] binding in guinea pig caudate stimulated by SNC80

SMILES | Ki [1] | Ki [2]
CCO[C@@]12Cc3c(oc4ccccc34)[C@@H]3Oc4c(O)ccc5c4[C@@]31CCN(CC1CC1)[C@@H]2C5 | 0.88 nM | 
C=CCN1CC[C@]23c4c5ccc(O)c4O[C@H]2c2[nH]c4ccccc4c2C[C@@]3(OCC)[C@H]1C5 |  | 1 nM
CCO[C@@]12Cc3c([nH]c4ccccc34)[C@]3(C)Oc4c(O)ccc5c4C31CCN(CC1CC1)C2C5 (stereo partly drawn) [22-cyclopropylmethyl-2-ethoxy-13-methyl-(2S,13R)-14-oxa-11,22-diazaheptacyclo[13.9.1.01,13.02,21.04,12.05,10.019,25]pentacosa-4(12),5(10),6,8,15,17,19(25)-heptaen-16-ol] | 0.96 nM | 
